Biological target: T1, hSCN3A sodium channels (Homo sapiens, UniProt Q9NY46)
T1 construct: expressed in transfected cells
Test: hSCN3A electrophysiology, Ionworks Quattro automated platform (Table C)
Type: cell-based
Conditions: for inhibition at 3 µM: read-out: SCN3A % INHIB HTS IWQ 3 μM; for inhibition at 10 µM: read-out: SCN3A % INHIB HTS IWQ 10 μM; for SCN3A INHIB INACT DRC EP IWQ EMAX: Emax of dose-response curve, inactivated state; for IC50: read-out: SCN3A IWQ IC-50
Description: Human Embryonic Kidney (HEK) cells were transfected with an hSCN3A construct using lipofectamine reagent (Invitrogen), using standard techniques. […] Clones were screened for expression using the whole-cell voltage-clamp technique.
HEK cells stably transfected with hSCN3A were maintained in DMEM medium supplemented with 10% heat-inactivated fetal bovine serum and 400 μg/ml G418 sulfate in an incubator at 37° C. with a humidified atmosphere of 10% CO2. […] For electrophysiological studies, cells were removed from the culture flask by brief trypsinization and replated at low density onto glass cover slips. Cells were typically used for electrophysiological experiments within 24 to 72 h after plating.
Electrophysiological assays were also conducted using the Ionworks Quattro automated electrophysiological platform (Molecular Devices Corp) (Table C). Intracellular and extracellular solutions were as described above with the following changes, 100 μg/ml amphotericin was added to the intracellular solution to perforate the membrane and allow electrical access to the cells. hSCN3A cells were grown and harvested as for PatchXpress and cells were resuspended in extracellular solution at a concentration of 3-4×10^6 cells/ml. The onboard liquid handling facility of the Ionworks Quattro was used for dispensing cells and application of test compounds. A voltage protocol was then applied that comprised of a voltage step to fully inactivate the sodium channels, followed by a brief hyperpolarized recovery period to allow partial recovery from inactivation for unblocked sodium channels, followed by a test depolarized voltage step to assess magnitude of inhibition by test compound. Compound effect was determined based on current amplitude difference between the pre-compound addition and post-compound addition scans.

T1 sequence (Q9NY46 whole entry): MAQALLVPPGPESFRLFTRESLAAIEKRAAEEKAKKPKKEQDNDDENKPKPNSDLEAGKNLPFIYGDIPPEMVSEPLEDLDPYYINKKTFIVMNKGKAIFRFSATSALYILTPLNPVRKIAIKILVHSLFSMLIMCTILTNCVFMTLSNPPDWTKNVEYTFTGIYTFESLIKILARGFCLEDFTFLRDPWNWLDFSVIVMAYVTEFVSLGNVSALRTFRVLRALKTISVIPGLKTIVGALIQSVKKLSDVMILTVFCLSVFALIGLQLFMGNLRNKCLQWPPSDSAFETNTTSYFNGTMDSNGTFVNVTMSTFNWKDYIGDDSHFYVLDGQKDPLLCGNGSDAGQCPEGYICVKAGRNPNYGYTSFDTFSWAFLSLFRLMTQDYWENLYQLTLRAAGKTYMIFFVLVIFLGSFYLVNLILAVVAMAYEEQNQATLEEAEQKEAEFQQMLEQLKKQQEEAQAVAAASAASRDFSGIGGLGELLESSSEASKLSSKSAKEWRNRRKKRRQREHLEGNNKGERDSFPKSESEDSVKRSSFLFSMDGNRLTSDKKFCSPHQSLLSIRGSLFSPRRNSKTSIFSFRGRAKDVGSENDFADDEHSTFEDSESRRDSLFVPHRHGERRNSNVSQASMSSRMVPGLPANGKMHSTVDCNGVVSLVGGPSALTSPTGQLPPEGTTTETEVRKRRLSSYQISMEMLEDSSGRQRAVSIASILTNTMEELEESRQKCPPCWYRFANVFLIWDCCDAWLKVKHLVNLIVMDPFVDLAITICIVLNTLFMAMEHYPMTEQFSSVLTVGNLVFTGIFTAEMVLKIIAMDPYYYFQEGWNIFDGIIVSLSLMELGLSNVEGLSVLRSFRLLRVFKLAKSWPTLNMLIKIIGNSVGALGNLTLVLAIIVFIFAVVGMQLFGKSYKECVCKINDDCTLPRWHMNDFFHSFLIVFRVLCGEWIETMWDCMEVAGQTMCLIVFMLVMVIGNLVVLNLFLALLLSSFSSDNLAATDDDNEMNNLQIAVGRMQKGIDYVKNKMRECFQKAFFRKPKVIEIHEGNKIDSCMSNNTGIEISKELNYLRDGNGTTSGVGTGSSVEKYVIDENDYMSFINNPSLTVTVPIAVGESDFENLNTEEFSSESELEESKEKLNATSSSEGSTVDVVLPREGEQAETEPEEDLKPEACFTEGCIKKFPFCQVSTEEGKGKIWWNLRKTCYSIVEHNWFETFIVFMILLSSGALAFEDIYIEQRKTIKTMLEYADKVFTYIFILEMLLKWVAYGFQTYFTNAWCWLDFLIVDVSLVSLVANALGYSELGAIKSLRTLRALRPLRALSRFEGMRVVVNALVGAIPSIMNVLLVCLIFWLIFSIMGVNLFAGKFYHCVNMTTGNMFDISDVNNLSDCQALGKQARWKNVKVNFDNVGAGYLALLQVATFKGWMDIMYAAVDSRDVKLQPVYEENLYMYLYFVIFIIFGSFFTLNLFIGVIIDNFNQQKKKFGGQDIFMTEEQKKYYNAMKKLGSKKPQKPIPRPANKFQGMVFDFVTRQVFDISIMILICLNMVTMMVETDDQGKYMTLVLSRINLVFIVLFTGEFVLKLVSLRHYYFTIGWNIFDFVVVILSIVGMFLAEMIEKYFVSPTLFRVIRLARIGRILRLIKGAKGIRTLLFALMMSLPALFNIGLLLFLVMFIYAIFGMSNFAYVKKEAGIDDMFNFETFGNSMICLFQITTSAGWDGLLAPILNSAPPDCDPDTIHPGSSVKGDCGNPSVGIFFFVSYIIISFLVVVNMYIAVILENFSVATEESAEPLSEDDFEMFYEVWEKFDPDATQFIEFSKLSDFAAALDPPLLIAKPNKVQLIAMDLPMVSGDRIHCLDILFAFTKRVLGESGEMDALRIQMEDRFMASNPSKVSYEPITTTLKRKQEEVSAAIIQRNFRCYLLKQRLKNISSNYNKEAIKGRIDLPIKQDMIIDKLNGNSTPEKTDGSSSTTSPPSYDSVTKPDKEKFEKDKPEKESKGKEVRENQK

SMILES: Cc1cc(CC(NC(=O)c2ccc(S(=O)(=O)Nc3nccs3)cc2)c2ccc(F)cc2)on1 (stereo not drawn) [Example 156, N-[1-(4-fluorophenyl)-2-(3-methylisoxazol-5-yl)ethyl]-4-[(1,3-thiazol-2-ylamino)sulfonyl]benzamide]
- inhibition at 3 µM (3 μM compound): 13.3%
- inhibition at 10 µM (10 μM compound): 30.3%

SMILES: COc1ccc(CC2CCCN(C(=O)c3ccc(S(=O)(=O)Nc4nccs4)cc3)C2)cc1 (stereo not drawn) [Example 270, 4-{[3-(4-Methoxybenzyl)piperidin-1-yl]carbonyl}-N-1,3-thiazol-2-yl-benzenesulfonamide]
- inhibition at 3 µM (3 μM compound): 19.2%
- inhibition at 10 µM (10 μM compound): 45.7%
- SCN3A INHIB INACT DRC EP IWQ EMAX: 53.7
- IC50: 27.7 µM

SMILES: COc1cccc(C2CCCCN2C(=O)c2ccc(S(=O)(=O)Nc3nccs3)cc2)c1 (stereo not drawn) [Example 201, 4-{[2-(3-Methoxyphenyl)piperidin-1-yl]carbonyl}-N-1,3-thiazol-2-yl-benzenesulfonamide]
- inhibition at 3 µM (3 μM compound): 13.7%
- inhibition at 10 µM (10 μM compound): -0.98%

SMILES: O=C(c1ccc(S(=O)(=O)Nc2nccs2)cc1)N1CCSCC1c1ccc(F)cc1 (stereo not drawn) [Example 223, 4-{[3-(4-Fluorophenyl)thiomorpholin-4-yl]carbonyl}-N-1,3-thiazol-2-yl-benzenesulfonamide]
- inhibition at 3 µM (3 μM compound): 36.9%
- inhibition at 10 µM (10 μM compound): 47.5%
- SCN3A INHIB INACT DRC EP IWQ EMAX: 46.3
- IC50: 33 µM

SMILES: O=C(c1ccc(S(=O)(=O)Nc2nccs2)cc1)N1CCC(CCc2ccccc2)C1 (stereo not drawn) [Example 227, 4-{[3-(2-Phenylethyl)pyrrolidin-1-yl]carbonyl}-N-1,3-thiazol-2-yl-benzenesulfonamide]
- inhibition at 3 µM (3 μM compound): 29.3%
- inhibition at 10 µM (10 μM compound): 45.8%
- SCN3A INHIB INACT DRC EP IWQ EMAX: 53
- IC50: 20.3 µM

SMILES: Cc1noc(C(NC(=O)c2ccc(S(=O)(=O)Nc3nccs3)cc2)c2ccccc2)n1 (stereo not drawn) [Example 183, N-[(3-methyl-1,2,4-oxadiazol-5-yl)(phenyl)methyl]-4-[(1,3-thiazol-2-ylamino)sulfonyl]benzamide]
- inhibition at 3 µM (3 μM compound): 8.9%
- inhibition at 10 µM (10 μM compound): 1.34%

SMILES: Cc1ccc(C2CCCCN2C(=O)c2ccc(S(=O)(=O)Nc3nccs3)cc2)cc1 (stereo not drawn) [Example 207, 4-{[2-(4-Methylphenyl)piperidin-l-yl]carbonyl}-N-1,3-thiazol-2-yl-benzenesulfonamide]
- SCN3A % INHIB HTS IWQ 3 μM (3 μM compound): 27.25%
- SCN3A % INHIB HTS IWQ 10 μM (10 μM compound): −16.86%

SMILES: COc1cccc(C2CCCN2C(=O)c2ccc(S(=O)(=O)Nc3nccs3)cc2)c1 (stereo not drawn) [Example 273, 4-{[2-(3-Methoxyphenyl)pyrrolidin-1-yl]carbonyl}-N-1,3-thiazol-2-yl-benzenesulfonamide]
- inhibition at 3 µM (3 μM compound): 4.82%
- inhibition at 10 µM (10 μM compound): 2.72%

SMILES: O=C(c1ccc(S(=O)(=O)Nc2nccs2)cc1)N1CCCC(Cc2cncnc2)C1 (stereo not drawn) [Example 272, 4-{[3-(Pyrimidin-5 ylmethyl)piperidin-1-yl]carbonyl}-N-1,3-thiazol-2-yl-benzenesulfonamide]
- inhibition at 3 µM (3 μM compound): 1.88%
- inhibition at 10 µM (10 μM compound): 8.31%

SMILES: CC[C@H](NC(=O)c1ccc(S(=O)(=O)Nc2nccs2)cc1)c1ccccc1 [Example 145, N-[(1S)-1-phenylpropyl]-4-[(1,3-thiazol-2-ylamino)sulfonyl]benzamide]
- inhibition at 3 µM (3 μM compound): 2.05%
- inhibition at 10 µM (10 μM compound): 19.4%

SMILES: O=C(NCCOc1ccccc1)c1ccc(S(=O)(=O)Nc2nccs2)cc1 [Example 168, N-(2-phenoxyethyl)-4-[(1,3-thiazol-2-ylamino)sulfonyl]benzamide]
- inhibition at 3 µM (3 μM compound): 31.4%
- inhibition at 10 µM (10 μM compound): 39.3%

SMILES: O=C(c1ccc(S(=O)(=O)Nc2nccs2)cc1)N1CCOC(C2CC2)C1 (stereo not drawn) [Example 231, 4-[(2-Cyclopropylmorpholin-4-yl)carbonyl]-N-1,3-thiazol-2-yl-benzenesulfonamide]
- inhibition at 3 µM (3 μM compound): 3.22%
- inhibition at 10 µM (10 μM compound): -7.02%

SMILES: CN(CCC(O)c1ccccc1)C(=O)c1ccc(S(=O)(=O)Nc2nccs2)cc1 (stereo not drawn) [Example 235, N-(3-hydroxy-3-phenylpropyl)-N-methyl-4-[(1,3-thiazol-2-yl-amino)sulfonyl]benzamide]
- inhibition at 3 µM (3 μM compound): 21.4%
- inhibition at 10 µM (10 μM compound): -2.43%

SMILES: COc1cccc(C2(NC(=O)c3ccc(S(=O)(=O)Nc4nccs4)cc3)CC2)c1 [Example 164, N-[1-(3-methoxyphenyl)cyclopropyl]-4-[(1,3-thiazol-2-ylamino)sulfonyl]benzamide]
- inhibition at 3 µM (3 μM compound): 16.6%
- inhibition at 10 µM (10 μM compound): 24.1%

SMILES: O=C(c1ccc(S(=O)(=O)Nc2nccs2)cc1)N1CCCC1c1ccccc1F (stereo not drawn) [Example 281, 4-{[2-(2-Fluorophenyl)pyrrolidin-1-yl]carbonyl}-N-1,3-thiazol-2-yl-benzenesulfonamide]
- inhibition at 3 µM (3 μM compound): 10.2%
- inhibition at 10 µM (10 μM compound): 28.9%

SMILES: O=C(c1ccc(S(=O)(=O)Nc2nccs2)cc1)N1CCCCC1Cc1ccccn1 (stereo not drawn) [Example 244, 4-{[2-(Pyridin-2-ylmethyl)piperidin-1-yl]carbonyl}-N-1,3-thiazol-2-yl-benzenesulfonamide]
- inhibition at 3 µM (3 μM compound): 14.2%
- inhibition at 10 µM (10 μM compound): 21.9%

SMILES: Cc1cccc(CC2COCCN(C(=O)c3ccc(S(=O)(=O)Nc4nccs4)cc3)C2)n1 (stereo not drawn) [Example 225, 4-({6-[(6-Methylpyridin-2-yl)methyl]-1,4-oxazepan-4-yl}carbonyl)-N-1,3-thiazol-2-yl-benzenesulfonamide]
- inhibition at 3 µM (3 μM compound): 6.08%
- inhibition at 10 µM (10 μM compound): -8.14%

SMILES: Cc1nccc(C2CCCN2C(=O)c2ccc(S(=O)(=O)Nc3nccs3)cc2)n1 (stereo not drawn) [Example 212, 4-{[2-(2-Methylpyrimidin-4-yl)pyrrolidin-1-yl]carbonyl}-N-1,3-thiazol-2-yl-benzenesulfonamide]
- inhibition at 3 µM (3 μM compound): 14.7%
- inhibition at 10 µM (10 μM compound): -8.45%

SMILES: O=C(c1ccc(S(=O)(=O)Nc2nccs2)cc1)N(Cc1ccccc1)[C@@H]1CCCC[C@H]1O [Example 213, N-benzyl-N-[(1R,2R)-2-hydroxycyclohexyl]-4-[(1,3-thiazol-2-yl-amino)sulfonyl]benzamide]
- inhibition at 3 µM (3 μM compound): -0.67%
- inhibition at 10 µM (10 μM compound): 1.51%

SMILES: N#Cc1cccc(OCC2CCCN(C(=O)c3ccc(S(=O)(=O)Nc4nccs4)cc3)C2)c1 (stereo not drawn) [Example 278, 4-({3-[(3-Cyanophenoxy)methyl]piperidin-1-yl}carbonyl)-N-1,3-thiazol-2-yl-benzenesulfonamide]
- inhibition at 3 µM (3 μM compound): 25.4%
- inhibition at 10 µM (10 μM compound): 30%

SMILES: O=C(c1ccc(S(=O)(=O)Nc2nccs2)cc1)N1CCCC1Cc1ccccc1 (stereo not drawn) [Example 197, 4-[(2-Benzylpyrrolidin-1-yl)carbonyl]-N-1,3-thiazol-2-yl-benzenesulfonamide]
- inhibition at 3 µM (3 μM compound): 17.6%
- inhibition at 10 µM (10 μM compound): 17.4%

SMILES: COc1cccc(C2CCCCCN2C(=O)c2ccc(S(=O)(=O)Nc3nccs3)cc2)c1 (stereo not drawn) [Example 275, 4-{[2-(3-Methoxyphenyl)azepan-1-yl]carbonyl}-N-1,3-thiazol-2-yl-benzenesulfonamide]
- inhibition at 3 µM (3 μM compound): 9.93%
- inhibition at 10 µM (10 μM compound): -0.2%

SMILES: O=C(c1ccc(S(=O)(=O)Nc2nccs2)cc1)N1CCCC(Cc2ncccn2)C1 (stereo not drawn) [Example 237, 4-{[3-(Pyrimidin-2-ylmethyl)piperidin-1-yl]carbonyl}-N-1,3-thiazol-2-yl-benzenesulfonamide]
- inhibition at 3 µM (3 μM compound): 24.7%
- inhibition at 10 µM (10 μM compound): 17.6%

SMILES: O=C(N[C@@H]1CCC[C@@H]1c1cc(F)cc(F)c1)c1ccc(S(=O)(=O)Nc2nccs2)cc1 [Example 128, N-[(1R,2R)-2-(3,5-difluorophenyl)cyclopentyl]-4-[(1,3-thiazol-2-ylamino)sulfonyl]benzamide]
- inhibition at 3 µM (3 μM compound): 11.7%
- inhibition at 10 µM (10 μM compound): -1.66%

SMILES: COc1ccc(C2CC(CO)CN2C(=O)c2ccc(S(=O)(=O)Nc3nccs3)cc2)cc1 (stereo not drawn) [Example 280, 4-{[4-(Hydroxymethyl)-2-(4-methoxyphenyl)pyrrolidin-1-yl]carbonyl}-N-1,3-thiazol-2-yl-benzenesulfonamide]
- inhibition at 3 µM (3 μM compound): 13.2%
- inhibition at 10 µM (10 μM compound): 17%

SMILES: CC(C)(NC(=O)c1ccc(S(=O)(=O)Nc2nccs2)cc1)c1ccc(F)c(F)c1 [Example 146, N-[1-(3,4-difluorophenyl)-1-methylethyl]-4-[(1,3-thiazol-2-ylamino)sulfonyl]benzamide]
- inhibition at 3 µM (3 μM compound): 24.3%
- inhibition at 10 µM (10 μM compound): 27.9%

SMILES: O=C(NCc1cc(F)ccc1C(F)(F)F)c1ccc(S(=O)(=O)Nc2nccs2)cc1 [Example 81, N-[5-fluoro-2-(trifluoromethyl)benzyl]-4-[(1,3-thiazol-2-ylamino)sulfonyl]benzamide]
- inhibition at 3 µM (3 μM compound): 34.7%
- inhibition at 10 µM (10 μM compound): 65.7%

SMILES: COc1ccc(CC2COCCN(C(=O)c3ccc(S(=O)(=O)Nc4nccs4)cc3)C2)cc1F (stereo not drawn) [Example 199, 4-{[6-(3-Fluoro-4-methoxybenzyl)-1,4-oxazepan-4-yl]carbonyl}-N-1,3-thiazol-2-yl-benzenesulfonamide]
- inhibition at 3 µM (3 μM compound): 10.2%
- inhibition at 10 µM (10 μM compound): 7.42%

SMILES: Cc1ccnc(NC(=O)c2ccc(S(=O)(=O)Nc3nccs3)cc2)c1 [Example 181, N-(4-methylpyridin-2-yl)-4-[(1,3-thiazol-2-ylamino)sulfonyl]benzamide]
- inhibition at 3 µM (3 μM compound): -12.2%
- inhibition at 10 µM (10 μM compound): 11.2%

SMILES: Cc1ccc([C@H](C)NC(=O)c2ccc(S(=O)(=O)Nc3nccs3)cc2)cc1 [Example 79, N-[(1S)-1-(4-methylphenyl)ethyl]-4-[(1,3-thiazol-2-ylamino)sulfonyl]benzamide]
- inhibition at 3 µM (3 μM compound): 17.7%
- inhibition at 10 µM (10 μM compound): -1.9%
